The nature of this series: Silicone O-ring passive dosing: dissolved concentrations, partitioning, losses and release in MSM. Conditions: for solubility: 15 °C, aqueous buffer. The procedure:
It is very important to control the freely dissolved PAH concentration and keep it unchanged throughout the experiment by equilibrium partitioning from the silicone. […] During the loading of PAHs, individual PAHs were dissolved in methanol (loading solvent) to saturation level. To create the PAHs mixture, the concentration in the loading solution was calculated using partitioning coefficients for each PAH from Gilbert et. al. (2015).^39 Then, cleaned and dried O-rings were added to 50 mL volumes of loading solution kept at 15±1° C. A criterion for successful application of the passive dosing system was ensuring the mass of PAHs dissolved into methanol was much greater than that partitioned into the silicon O-ring which in turn was greater than that partitioned into the MSM^37. After 24, 72 and 128 h, O-ring was removed from each loading batch, and they were transferred into MSM to measure O-ring (Crest) and freely dissolved concentration of each PAH (Cfree) at 0.33, 0.66, 1.33, 2.66, 5.33, 12, 24,48, and 72 h. The partition coefficient between different phases (KMethanol:Oring and KOring:MSM) were obtained using the measured Ctest,initial and Cfree, initial. The obtained partitioning coefficient (KOring:MSM) was applied to calculate the required O-ring volume to avoid depletion (<5%) using the following Equation: […]
With a 5 mL MSM and partitioning coefficients from Table 10, the O-ring volume needed for each PAH and PAH mixture were determined. The initial concentrations of freely dissolved PAHs (Cfree initial) and O-ring concentrations (Ctest) in medium samples were calculated via the approach published by Butler et. al (2013).^37 Finally, for the determination of the losses, freely dissolved concentrations of PAHs were directly measured in medium samples to compare with calculated Cfree initial.
Two controls were included to study biodegradation versus dissolved concentrations. The first control contained 5 mL of strain inoculating suspension in passive doing vials with O-rings to account for losses through volatilization. The second control contained 5 mL of MSM without any strain in passive dosing vials in the presence of O-ring loaded with PAHs to account for losses through […].

For orientation: solubility means the dissolved amount per volume that the medium holds. Read a high solubility as much dissolved substance.

In brackets after ≈: the same amount, converted by molar mass.

`c1ccc2cc3ccccc3cc2c1` [Anthracene] registered a solubility of 3.11 µg/mL (≈ 17.4 µM). Also, for the setting “MSM”, the “Cfree (dissolved concentration measured in MSM)” value came to 2.66 mg/L and the “Cfree initial (freely dissolved concentration)” value (shortened to “Cfree initial”) stood at 2.98 mg/L. Also, the losses through volatilization (control 1, passive dosing vials) stood at 4%. For the same compound, the “Ctest initial (O-ring concentration)” value (silicone O-ring) stood at 94.1 mg/L.
As for `c1ccc2ccccc2c1` [Naphthalene], the “Cfree (dissolved concentration measured in MSM)” value is 17.73 mg/L, the “Cfree initial” value is recorded as 18.31 mg/L, the “Ctest initial (O-ring concentration)” value is reported as 97.8 mg/L and the losses through volatilization was found to be 19%. Further, the “time after which water concentration decreased due to volatility” value is given as “about 4 h” and the solubility stood at 20.5 µg/mL (≈ 160 µM).
As for `c1ccc2c(c1)ccc1ccccc12` [Phenanthrene], the “Cfree (dissolved concentration measured in MSM)” value is 0.91 mg/L, the “Cfree initial” value is 1.01 mg/L, the “Ctest initial (O-ring concentration)” value turned out to be 48.6 mg/L and the losses through volatilization is on record as 0%. Further, the concentration in solution (solubility) was 1.04 µg/mL (≈ 5.84 µM).

Values taken from US20230357064A1, “ENZYME BOOSTER TECHNOLOGY FOR ADVANCED DECONTAMINATION OF PETROLEUM HYDROCARBONS” (priority 2022, published 2023).
